Laboratory results from patent US20260365670A1, “EGFR INHIBITORS AND USES THEREOF” (DIZAL (JIANGSU) PHARMACEUTICAL CO., LTD., priority 2022, published 2026).
Where two headings read alike, the source gives them in different places.

What was measured:
EGFR wild type = target: T1, EGFR wild type (Homo sapiens, UniProt P00533); assay: Inhibition of EGFR wild type biochemical enzymatic activity (HTRF); details: 1 mM ATP
T1 construct: purchased Carna Bio
Procedure, shortened: (§1)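 Following 1 h at room temperature with titrated compound, 1 mM ATP and 1 μM biotin-TK peptide (Mg2+/Mn2+, CHAPS, DTT, 0.5% DMSO buffer), EDTA-containing detection reagent terminated each enzyme reaction. Time-resolved fluorescence (ex 320, em 665/615 nm) ratio tracked activity. IC50 values came from four-parameter fits.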

EGFR L858R/T790M = target: T2, EGFR L858R/T790M (Homo sapiens, UniProt P00533, L858R/T790M); assay: Inhibition of EGFR L858R/T790M biochemical enzymatic activity (HTRF); details: 1 mM ATP
T2 construct: purchased Carna Bio
T2 sequence (P00533 25-1210 T790M/L858R): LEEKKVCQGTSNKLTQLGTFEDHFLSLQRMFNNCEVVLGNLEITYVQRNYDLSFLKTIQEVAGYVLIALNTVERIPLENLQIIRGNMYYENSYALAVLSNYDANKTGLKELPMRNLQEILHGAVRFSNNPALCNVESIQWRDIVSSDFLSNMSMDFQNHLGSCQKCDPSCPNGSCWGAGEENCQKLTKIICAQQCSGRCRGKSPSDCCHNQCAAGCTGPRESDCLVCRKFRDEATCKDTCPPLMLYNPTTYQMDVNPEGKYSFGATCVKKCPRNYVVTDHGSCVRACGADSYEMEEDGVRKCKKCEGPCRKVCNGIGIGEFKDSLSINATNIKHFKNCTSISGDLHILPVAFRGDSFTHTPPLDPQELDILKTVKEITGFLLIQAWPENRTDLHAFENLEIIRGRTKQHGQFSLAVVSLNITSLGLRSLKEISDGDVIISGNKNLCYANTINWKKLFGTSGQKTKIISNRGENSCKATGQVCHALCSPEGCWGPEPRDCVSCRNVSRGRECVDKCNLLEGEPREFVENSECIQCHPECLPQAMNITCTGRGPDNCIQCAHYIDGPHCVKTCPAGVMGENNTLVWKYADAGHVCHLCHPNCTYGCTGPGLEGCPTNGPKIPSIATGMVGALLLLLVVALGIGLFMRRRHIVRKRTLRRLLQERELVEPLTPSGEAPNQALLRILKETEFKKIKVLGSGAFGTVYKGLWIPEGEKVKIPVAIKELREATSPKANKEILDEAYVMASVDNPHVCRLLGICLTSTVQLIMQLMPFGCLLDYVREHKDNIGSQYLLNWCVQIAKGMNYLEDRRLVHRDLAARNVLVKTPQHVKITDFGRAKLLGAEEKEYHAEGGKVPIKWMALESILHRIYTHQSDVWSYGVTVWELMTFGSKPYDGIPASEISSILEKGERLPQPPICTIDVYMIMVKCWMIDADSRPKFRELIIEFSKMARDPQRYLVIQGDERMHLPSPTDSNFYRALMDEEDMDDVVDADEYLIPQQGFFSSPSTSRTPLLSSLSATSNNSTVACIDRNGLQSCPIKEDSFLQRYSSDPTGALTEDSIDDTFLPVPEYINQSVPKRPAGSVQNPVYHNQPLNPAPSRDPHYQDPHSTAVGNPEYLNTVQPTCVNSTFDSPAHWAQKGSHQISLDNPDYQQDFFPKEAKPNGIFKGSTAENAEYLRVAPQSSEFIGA
Procedure, shortened: as §1

EGFR (C797S L858R) = target: T3, EGFR (C797S L858R) (Homo sapiens, UniProt P00533, C797S/L858R); assay: Inhibition of EGFR (C797S L858R) biochemical enzymatic activity (HTRF); details: 1 mM ATP
T3 construct: purchased signalchem
T3 sequence (P00533 25-1210 C797S/L858R): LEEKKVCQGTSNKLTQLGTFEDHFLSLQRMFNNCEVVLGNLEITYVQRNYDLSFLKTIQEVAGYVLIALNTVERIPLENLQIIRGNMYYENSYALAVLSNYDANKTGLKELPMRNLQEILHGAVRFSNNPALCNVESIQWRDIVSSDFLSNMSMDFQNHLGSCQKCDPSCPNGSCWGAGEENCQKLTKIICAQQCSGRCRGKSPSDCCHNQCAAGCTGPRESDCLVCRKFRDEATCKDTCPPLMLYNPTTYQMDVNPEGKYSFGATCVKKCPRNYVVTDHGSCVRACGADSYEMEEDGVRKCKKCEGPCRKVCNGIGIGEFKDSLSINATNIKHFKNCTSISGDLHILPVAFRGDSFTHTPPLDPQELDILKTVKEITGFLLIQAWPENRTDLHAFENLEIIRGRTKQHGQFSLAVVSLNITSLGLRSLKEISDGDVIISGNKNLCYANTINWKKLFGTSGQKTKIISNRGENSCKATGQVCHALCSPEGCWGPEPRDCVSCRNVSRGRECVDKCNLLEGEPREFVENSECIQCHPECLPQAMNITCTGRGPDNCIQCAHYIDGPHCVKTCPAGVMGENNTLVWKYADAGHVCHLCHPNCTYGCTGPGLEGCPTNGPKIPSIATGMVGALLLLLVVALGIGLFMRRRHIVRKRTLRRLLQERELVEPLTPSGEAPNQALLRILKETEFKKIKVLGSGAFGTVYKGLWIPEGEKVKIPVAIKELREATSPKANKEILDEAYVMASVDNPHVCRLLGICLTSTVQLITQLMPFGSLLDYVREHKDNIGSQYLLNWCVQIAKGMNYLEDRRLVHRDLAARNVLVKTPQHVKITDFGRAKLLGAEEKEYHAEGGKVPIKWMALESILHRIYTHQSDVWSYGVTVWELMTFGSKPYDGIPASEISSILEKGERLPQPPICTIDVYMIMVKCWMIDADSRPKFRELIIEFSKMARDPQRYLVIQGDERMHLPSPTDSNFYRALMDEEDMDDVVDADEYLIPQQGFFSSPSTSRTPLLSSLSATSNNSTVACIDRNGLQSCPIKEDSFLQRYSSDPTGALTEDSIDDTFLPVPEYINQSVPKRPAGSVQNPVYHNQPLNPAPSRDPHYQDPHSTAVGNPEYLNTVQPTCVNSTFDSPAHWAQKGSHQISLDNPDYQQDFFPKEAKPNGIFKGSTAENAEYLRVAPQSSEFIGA
Procedure, shortened: as §1

A-431 = assay: Cell proliferation assay, A-431 cells (GI50, Table 6); type: cell-based
EGFR (d746-750 C797S) = target: T4, EGFR (d746-750 C797S) (Homo sapiens, UniProt P00533, C797S/DEL746-750); assay: Inhibition of EGFR (d746-750 C797S) biochemical enzymatic activity (HTRF); details: 1 mM ATP
T4 construct: purchased signalchem
T4 sequence (P00533 with tags, fused parts or gaps DEL746-750/C797S limits assumed): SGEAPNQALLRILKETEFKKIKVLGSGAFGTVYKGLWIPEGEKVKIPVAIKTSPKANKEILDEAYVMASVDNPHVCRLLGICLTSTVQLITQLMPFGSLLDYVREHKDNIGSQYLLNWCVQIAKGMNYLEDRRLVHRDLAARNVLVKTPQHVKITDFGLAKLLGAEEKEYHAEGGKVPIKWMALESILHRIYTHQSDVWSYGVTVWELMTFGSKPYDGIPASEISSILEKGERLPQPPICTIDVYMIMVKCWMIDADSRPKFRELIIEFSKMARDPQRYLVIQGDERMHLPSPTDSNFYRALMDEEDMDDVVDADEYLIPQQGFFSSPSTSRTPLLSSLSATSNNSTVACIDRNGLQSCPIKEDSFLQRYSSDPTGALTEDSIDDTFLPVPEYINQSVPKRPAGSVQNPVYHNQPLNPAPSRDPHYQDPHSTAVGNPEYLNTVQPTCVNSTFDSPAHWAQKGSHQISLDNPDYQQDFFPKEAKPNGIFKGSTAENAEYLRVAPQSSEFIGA
Procedure, shortened: as §1

EGFR Exon19Del/T790M = target: T5, EGFR Exon19Del/T790M (Homo sapiens, UniProt P00533, DEL746-750/T790M); assay: Inhibition of EGFR Exon19Del/T790M biochemical enzymatic activity (HTRF); details: 1 mM ATP
T5 construct: purchased Carna Bio
Procedure, shortened: as §1

PC-9 = assay: Cell proliferation assay, PC-9 cells (CellTiter-Glo, 72 hours); type: cell-based; details: PC9 cells, read-out: GI50 PC9
Procedure, shortened: (§2)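 GI50 is the concentration giving 50% proliferation inhibition. Growth for this was normalised to a baseline viability reading taken when compound was added, and to DMSO wells. PC-9 (500 cells/well) and mutant-EGFR Ba/F3 (5000 cells/well) are treated after overnight seeding in RPMI1640-based medium.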

EGFR Exon19Del = target: T6, EGFR Exon19Del (Homo sapiens, UniProt P00533, DEL746-750); assay: Inhibition of EGFR Exon19Del biochemical enzymatic activity (HTRF); details: read-out: IC50 @Del19
T6 construct: purchased Carna Bio
Procedure, shortened: as §1

[1] = target: T7, EGFR[T790M/C797S/d746-750] (Homo sapiens, UniProt P00533, C797S/DEL746-750/T790M); assay: Inhibition of EGFR[T790M/C797S/d746-750] biochemical enzymatic activity (HTRF)
T7 construct: purchased Carna Bio
T7 sequence (P00533 with tags, fused parts or gaps DEL746-750/T790M/C797S limits assumed): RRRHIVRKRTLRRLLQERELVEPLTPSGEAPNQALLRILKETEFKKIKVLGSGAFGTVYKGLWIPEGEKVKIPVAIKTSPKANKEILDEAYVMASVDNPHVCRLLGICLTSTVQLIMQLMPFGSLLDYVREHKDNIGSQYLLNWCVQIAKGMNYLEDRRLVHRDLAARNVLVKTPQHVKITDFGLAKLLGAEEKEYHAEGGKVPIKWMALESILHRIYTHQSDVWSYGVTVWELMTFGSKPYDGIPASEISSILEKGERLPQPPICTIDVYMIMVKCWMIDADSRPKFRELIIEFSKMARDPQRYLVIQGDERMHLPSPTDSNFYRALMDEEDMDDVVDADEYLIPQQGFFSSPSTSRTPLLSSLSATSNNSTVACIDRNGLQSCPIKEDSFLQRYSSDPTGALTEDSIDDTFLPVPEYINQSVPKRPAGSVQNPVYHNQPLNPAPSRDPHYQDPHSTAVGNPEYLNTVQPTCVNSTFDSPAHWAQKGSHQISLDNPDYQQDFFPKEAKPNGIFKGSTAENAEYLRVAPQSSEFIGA
Procedure, shortened: as §1

[2] = test system: Ba/F3 cells expressing EGFR mutations; assay: Cell proliferation assay, Ba/F3 cells expressing EGFR mutations (CellTiter-Glo, 72 hours); type: cell-based
Procedure, shortened: as §2

EGFR[T790M/C797S/L858R] = target: T8, EGFR[T790M/C797S/L858R] (Homo sapiens, UniProt P00533, C797S/L858R/T790M); assay: Inhibition of EGFR[T790M/C797S/L858R] biochemical enzymatic activity (HTRF); details: 1 mM ATP
T8 construct: purchased Carna Bio
T8 sequence (P00533 25-1210 T790M/C797S/L858R): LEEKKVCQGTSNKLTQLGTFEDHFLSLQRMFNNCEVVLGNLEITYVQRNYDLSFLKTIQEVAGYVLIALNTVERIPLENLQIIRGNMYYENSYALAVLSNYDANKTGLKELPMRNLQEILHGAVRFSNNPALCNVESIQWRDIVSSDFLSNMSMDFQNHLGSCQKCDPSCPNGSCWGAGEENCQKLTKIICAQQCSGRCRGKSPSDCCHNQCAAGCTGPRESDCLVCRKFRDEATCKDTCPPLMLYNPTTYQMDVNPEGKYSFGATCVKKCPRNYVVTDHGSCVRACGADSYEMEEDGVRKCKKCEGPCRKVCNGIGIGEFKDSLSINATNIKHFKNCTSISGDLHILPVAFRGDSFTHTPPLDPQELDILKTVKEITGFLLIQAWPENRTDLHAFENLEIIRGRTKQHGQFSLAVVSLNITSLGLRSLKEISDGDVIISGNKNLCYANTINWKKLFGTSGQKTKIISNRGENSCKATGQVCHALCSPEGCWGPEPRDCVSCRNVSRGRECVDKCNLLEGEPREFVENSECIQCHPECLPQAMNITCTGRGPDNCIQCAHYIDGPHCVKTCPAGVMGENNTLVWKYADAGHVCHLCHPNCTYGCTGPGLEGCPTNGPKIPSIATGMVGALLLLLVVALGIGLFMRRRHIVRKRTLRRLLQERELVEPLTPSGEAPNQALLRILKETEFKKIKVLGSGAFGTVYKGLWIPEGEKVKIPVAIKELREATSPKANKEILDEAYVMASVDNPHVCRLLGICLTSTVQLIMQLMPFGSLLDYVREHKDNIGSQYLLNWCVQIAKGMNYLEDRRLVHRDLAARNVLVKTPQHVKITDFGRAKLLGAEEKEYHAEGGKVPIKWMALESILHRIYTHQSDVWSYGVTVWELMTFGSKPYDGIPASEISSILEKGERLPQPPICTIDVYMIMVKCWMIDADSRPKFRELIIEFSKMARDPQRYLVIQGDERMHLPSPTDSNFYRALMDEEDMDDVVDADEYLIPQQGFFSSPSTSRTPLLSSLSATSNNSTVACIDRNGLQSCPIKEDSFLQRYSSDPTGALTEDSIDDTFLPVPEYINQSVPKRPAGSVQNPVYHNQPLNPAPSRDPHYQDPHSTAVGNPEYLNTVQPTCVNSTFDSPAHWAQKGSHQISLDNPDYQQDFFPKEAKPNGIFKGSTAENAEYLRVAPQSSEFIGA
Procedure, shortened: as §1

EGFR L858R = target: T9, EGFR L858R (Homo sapiens, UniProt P00533, L858R); assay: Inhibition of EGFR L858R biochemical enzymatic activity (HTRF); details: 1 mM ATP
T9 construct: purchased Carna Bio
Procedure, shortened: as §1

[3] = EGFR WT, 1 h, room temperature, read-out: IC50 (nM) @WT
[4] = EGFR L858R-T790M, 1 h, room temperature, read-out: IC50 (nM) @L858R-T790M
[5] = EGFR L858-C797S, 1 h, room temperature, read-out: IC50 (nM) @L858-C797S
[6] = Homo sapiens, A-431, A-431 cells
[7] = EGFR Del19-C797S, 1 h, room temperature, read-out: IC50 (nM) @Del19-C797S
[8] = EGFR Del19-T790M, 1 h, room temperature, read-out: IC50 (nM) @Del19-T790M
[9] = EGFR Del19, 1 mM ATP, 1 h, room temperature
[10] = EGFR T790M-C797S-Del19, 1 mM ATP, 1 h, room temperature, read-out: IC50 (nM) @T790M - C797S - Del19
[11] = Mus musculus, BaF3, 72 h, BaF3 cells, EGFR DEL19 - C797S, read-out: GI50 DEL19 - C797S/BaF3
[12] = Mus musculus, BaF3, 72 h, BaF3 cells, EGFR DEL19 - T790-C797S, read-out: GI50 DEL19 - T790-C797S/BaF3
[13] = Mus musculus, BaF3, 72 h, BaF3 cells, EGFR L858R - C797S, read-out: GI50 L858R - C797S/BaF3
[14] = Mus musculus, BaF3, 72 h, BaF3 cells, EGFR L858R - T790-C797S, read-out: GI50 L858R - T790-C797S/BaF3
[15] = Mus musculus, BaF3, 72 h, BaF3 cells, EGFR L858R - T790M, read-out: GI50 L858R - T790M/BaF3
[16] = Mus musculus, BaF3, 72 h, BaF3 cells, EGFR L858R, read-out: GI50 L858R/BaF3
[17] = Mus musculus, BaF3, 72 h, EGFR DEL19 - T790M, read-out: GI50 DEL19 - T790M
[18] = EGFR T790M-C797S-L858R, 1 h, room temperature, read-out: IC50 (nM) @T790M- C797S - L858R
[19] = 1 h, room temperature, read-out: IC50 (nM) @L858R

SMILES | IC50 (EGFR wild type; [3]) [nM] | IC50 (EGFR L858R/T790M; [4]) [nM] | IC50 (EGFR (C797S L858R); [5]) [nM] | GI50 (A-431; [6]) [nM] | IC50 (EGFR (d746-750 C797S); [7]) [nM] | IC50 (EGFR Exon19Del/T790M; [8]) [nM] | GI50 (PC-9; Homo sapiens, PC-9, 72 h) [nM] | IC50 (EGFR Exon19Del; [9]) [nM] | IC50 [1, 10] [nM] | GI50 [2, 11] [nM] | GI50 [2, 12] [nM] | GI50 [2, 13] [nM] | GI50 [2, 14] [nM] | GI50 [2, 15] [nM] | GI50 [2, 16] [nM] | GI50 [2, 17] [nM] | IC50 (EGFR[T790M/C797S/L858R]; [18]) [nM] | IC50 (EGFR L858R; [19]) [nM] | further results
C[C@@H]1CCCOc2cc(F)c(F)cc2-c2cc(cn(C)c2=O)C(=O)Nc2nc3ccc(N4CCN(C)CC4)cc3n2C1 [Example A111, (12R)-4,5-difluoro-12,27-dimethyl-17-(4-methylpiperazin-1-yl)-8-oxa-14,21,23,27-tetraazapentacyclo[23.3.1.0^{2,7}.0^{14,22}.0^{15,20}]nonacosa-1(29),2(7),3,5,15,17,19,21,25-nonaene-24,28-dione] | 607 | 86 | 40 | 8230 | 18 | 46 | 334 | 21 | 47 | 30.3 | 326 | 125 | 309 | 658 | 103 | 325 | 63 | 36 | –
Cc1cc2cc(n1)-c1cnn(C)c1OCCN1CC3CCC(C3)(C1)n1c(nc3ccc(N4CC(N5CCOCC5)C4)cc31)NC2=O (single isomer, unassigned) [Example B48A] | – | – | – | – | – | – | – | – | – | – | – | – | – | – | – | – | – | – | IC50 (EGFR wild type; EGFR wild type, 1 h at room temperature, read-out: IC50 @WT): > 5000 nM; IC50 (EGFR L858R/T790M; EGFR L858R/T790M, 1 h at room temperature, read-out: IC50 @L858R-T790M): > 5000 nM; IC50 (EGFR (C797S L858R); EGFR (C797S L858R), 1 h at room temperature, read-out: IC50 @L858-C797S): 2920 nM; GI50 (A-431; A-431 cells): 7000 nM; IC50 (EGFR (d746-750 C797S); EGFR (d746-750 C797S), 1 h at room temperature, read-out: IC50 @Del19-C797S): 1020 nM; IC50 (EGFR Exon19Del/T790M; EGFR Exon19Del/T790M, 1 h at room temperature, read-out: IC50 @Del19-T790M): > 5000 nM; GI50 (PC-9): 973 nM; IC50 (EGFR Exon19Del; EGFR Exon19Del, 1 mM ATP, 1 h at room temperature): 2240 nM; IC50 ([1]; EGFR[T790M/C797S/d746-750], 1 mM ATP, 1 h at room temperature, read-out: IC50 @T790M - C797S - Del19): > 5000 nM; GI50 ([2]; BaF3 cells, EGFR DEL19 - C797S, read-out: GI50 DEL19 - C797S/BaF3): 114 nM; GI50 ([2]; BaF3 cells, EGFR DEL19 - T790-C797S, read-out: GI50 DEL19 - T790-C797S/BaF3): 172 nM; GI50 ([2]; BaF3 cells, EGFR L858R - C797S, read-out: GI50 L858R - C797S/BaF3): 426 nM; GI50 ([2]; BaF3 cells, EGFR L858R - T790-C797S, read-out: GI50 L858R - T790-C797S/BaF3): 34 nM; GI50 ([2]; BaF3 cells, EGFR L858R - T790M, read-out: GI50 L858R - T790M/BaF3): 168 nM; GI50 ([2]; BaF3 cells, EGFR L858R, read-out: GI50 L858R/BaF3): 846 nM; GI50 ([2]; EGFR DEL19 - T790M, read-out: GI50 DEL19 - T790M): 140 nM; IC50 (EGFR[T790M/C797S/L858R]; EGFR[T790M/C797S/L858R], 1 h at room temperature, read-out: IC50 @T790M- C797S - L858R): > 5000 nM; IC50 (EGFR L858R; 1 h at room temperature, read-out: IC50 @L858R): > 5000 nM
Cn1ncc2c1OCCN1CC3CCC(CC3)(C1)n1c(nc3cc(F)c(N4CCOCC4)cc31)NC(=O)c1cc-2c(=O)n(C)c1 [Example A113, 6-Fluoro-15,21-dimethyl-5-(morpholin-4-yl)-23-oxa-2,9,11,15,20,21,26-heptaazaheptacyclo[26.2.2.1^{1,26}.1^{13,17}.0^{2,10}.0^{3,8}.0^{18,22}]tetratriaconta-3,5,7,9,13,17(34),18(22),19-octaene-12,16-dione] | > 5000 | 230 | 46 | 4690 | 1200 | 32 | 147 | 41 | 45 | 15 | 108 | 172 | 230 | 255 | 121 | 63 | 900 | 439 | –
Cc1cc2cc(n1)-c1cnn(C)c1OCCN(CC(F)F)CCn1c(nc3ccccc31)NC2=O [Example B5] | > 5000 | 13 | 195 | 2820 | 48 | 5.1 | 115 | 108 | 4.1 | 62 | 31 | 66 | 9.1 | 7 | 144 | 41 | 7.1 | 440 | –
